Assay results as given in patent US20050233413A1, “Neuroprotective polypeptides and methods of use” (priority 2002, published 2005).
Read-outs that look alike come from different tables or passages of the source. Where no end group is shown, it is not given here.

Assays:
Aβ and V642I-APP = type: cell-based; conditions: Table 5, marked **
Description: (§1) F11 cells, the hybrid of a rat embryonic-day-13 primary cultured primary neuron and a mouse neuroblastoma cell, are one of the best models for primary cultured neurons as they carry representative characteristics of primary neurons, such as generation of action potentials without differentiation by NGF [22]. They have been used in various studies of is neuronal functions. Using these cells, the underlying mechanisms for cytotoxicity by V642I-APP have well been analyzed. Cytotoxicity by V642 mutants of APP has also been confirmed in multiple different systems. F11 cells were grown in Ham's F-12 (GibcoBRL, Gaithersburg, Md.) plus 18% fetal bovine serum (FBS; Hyclone, Logan, Utah) and antibiotics, as described previously. F11 cells (7×10^4 cell/well in a 6-well plate cultured in Ham's F-12 plus 18% FBS for 12-16 hr) were transfected with plasmids encoding FAD genes by lipofection [FAD cDNA 2 μg, LipofectAMINE 4 μl, PLUS reagent 8 μl (GibcoBRL)] in the absence of serum for 3 hr, and were incubated with Ham's F-12 plus 18% FBS for 2 hr. Then, culture media were changed to Ham's F-12 plus 10% FBS with or without HN peptides, and cells were cultured for an additional 67 hr. Seventy-two hr after transfection, cell mortality was measured by Trypan blue exclusion assay, performed as follows. Cells were suspended by pipetting gently, and 50 μl of 0.4% (finally 0.08%) Trypan blue solution (Sigma, St Louis, Mo.) was mixed with 200 μl of the cell suspension at room temperature. Stained cells were counted within 3 min after the mixture with Trypan blue solution.
(§2) The primary culture of mouse cortical neurons was performed in poly-L-lysine-coated 24-well plates or 96-well plates (Sumitomo Bakelite, Akita, Japan), in the absence of serum and the presence of N2 supplement, as described previously. The purity of neurons by this method was >98%. Prepared neurons (for neurons seeded in 96-well plates: 2.5×10^4 or 5×10^4 cells/well, 100 μl culture medium/well; for neurons seeded in 24-well plates: 1.25×10^5 cells/well, 250 μl culture medium/well) were preincubated with or without 10 μM (in case for the experiment with 10 μM HN) synthetic HN for 16 hr, and treated with 25 μM Aβ in the presence or absence of 10 μM HN for 72 hr, respectively. As primary neurons were vulnerable to transient dryness during medium exchange, we treated neurons with 25 μM Aβ as follows. First, a half volume (50 μl for neurons in 96-well plates; 125 μl for neurons in 24-well plates) of old medium was discarded. Then, the same volume (50 μl for neurons in 96-well plates; 125 μl for neurons in 24-well plates) of prewarned fresh medium containing 10 μM HN and 50 μM Aβ (Aβ was directly resolved) was added to the culture. The Aβ peptides used at 25 μM to induce neurotoxicity formed aggregation in the medium during the cell culture at 37° C. for 72 hr. as described. The WST-8 cell viability assay was performed, using Cell Counting Kit-8 (Wako Pure Chemical Industries, Osaka, Japan), as described previously.
(§3) Calcein assay was performed with Calcein-AM {3′,6′-di-(O-acetyl)-2′,7′-bis [N,N-bis(carboxymethyl)aminomethyl] fluorescein, tetraacetoxymethyl ester; Dojindo}, as described previously. These assays were simultaneously performed in the experiments with neurons seeded in 96-well plates, as follows. Seventy-two hours after Aβ treatment, cells were added with the mixture of 10 μl WST-8 solution and 1 μl of 600 μM Calcein-AM. After 2 hr incubation in a CO2 incubator at 37° C., WST-8 absorbance was measured as OD450. After exchanging the medium to PBS to lower the background, Calcein-specific fluorescence (ex=485 nm, em=535 nm) was observed by fluorescence microscopy or measured by a spectrofluorometer (Wallac1420 ARVOsx Multi Label Counter). […]

[1] = tested on: primary cultured neurons treated with 25 μM Aβ1-43; type: cell-based
Procedure: (§4) In one assay, transfection with V642I-APP causes cell death in F11 neuronal hybrid cells. In the other, treatment with Aβ peptides causes cell death in primary cultured cortical neurons.
as §2
Calcein assay was performed with Calcein-AM {3′,6′-di-(O-acetyl)-2′,7′-bis [N,N-bis(carboxymethyl)aminomethyl] fluorescein, tetraacetoxymethyl ester; Dojindo}, as described previously. These assays were simultaneously performed in the experiments with neurons seeded in 96-well plates, as follows. Seventy-two hours after Aβ treatment, cells were added with the mixture of 10 μl WST-8 solution and 1 μl of 600 μM Calcein-AM. After 2 hr incubation in a CO2 incubator at 37° C., WST-8 absorbance was measured as OD450. After exchanging the medium to PBS to lower the background, Calcein-specific fluorescence (ex=485 nm, em=535 nm) was observed by fluorescence microscopy or measured by a spectrofluorometer (Wallac1420 ARVOsx Multi Label Counter). Most cell viability data using Calcein assay and WST-8 assay were obtained from neurons seeded at 5×10^4 cells/well in 96-well plates (high-density neurons) and confirmed by both assays with the cells seeded at 2.5×10^4 cells/well (low-density neurons).
Some experiments for Calcein assay were performed with neurons seeded in 24-well plates. […] In most experiments using primary neurons, four independent experiments were performed and the means? S. D. of the results were discussed.

HN (self-dimerization) [2] = target: T1, HN (self-dimerization) (Homo sapiens, UniProt Q8IVG9, S7A); assay: Dimerization experiment (Ni-bead precipitation of FLAG-tagged peptide by (His)6-tagged peptide); type: binding; conditions: excess amounts of competitor
T1 construct: host or cells: chemically synthesised peptide (no expression host)
T1 sequence (Q8IVG9 with tags, fused parts or gaps S7A): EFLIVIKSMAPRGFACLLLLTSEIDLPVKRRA
Procedure: (§5) Synthetic (His)6-tagged HN derivative peptides (1 nmol) was incubated with 20 μl of Ni-NTA agarose (QIAGEN, Hilden, Germany) in a total volume of 0.5 ml of buffer A [20 mM Tris/HCl (pH8.0) and 1 mM DTT] for 1 hr at 4° C. and washed once with buffer B [20 mM Tris/HCl (pH 7.4), 1 mM DTT, and 150 mM NaCl]. Synthetic FLAG-tagged peptides (1 nmol) were mixed with the beads immobilizing (His)6-tagged peptides in a total volume of 0.5 ml of buffer B for 2 hr at 4° C. on a rotating shaker, and washed three times with buffer B. The washed beads were mixed with 20 μl of 2× sampling buffer [100 mM Tris/HCl (pH6.8), 200 mM DTT, 4% (w/v) SDS, 0.2% bromophenol blue, and 20% (v/v) glycerol] and boiled. The supernatant was submitted to Tris/Tricine SDS-PAGE, followed by immunoblotting analysis with 1/5000 anti-FLAG monoclonal antibody M2 (Sigma).

HN (self-dimerization) [3] = target: T2, HN (self-dimerization) (Homo sapiens, UniProt Q8IVG9); assay: as above; type: binding; conditions: excess amounts of competitor
T2 construct: host or cells: chemically synthesised peptide (no expression host)
Procedure: as §5

[4] = tested on: F11 cells transfected with V642I-APP cDNA; assay: F11 cell death by V642I-APP transfection (Trypan blue exclusion); type: cell-based
Description: as §4, §1

HN (self-dimerization) [5] = assay: Dimerization experiment (Ni-bead precipitation of FLAG-tagged peptide by (His)6-tagged peptide); type: binding; conditions: Ni-bead precipitation, anti-FLAG immunoblot
Procedure: as §5

[6] = Apparent stability of peptides in the culture medium; type: physicochemical; conditions: 72-hr incubation of 10 μM peptides in the cultured medium; data not shown
Description: The Ser^7 residue plays a role different from that of Ser^14. S7A substitution nullified the action of HN, while Ser^7 racemation had no influence. […] Given the fact that EFLIVIKS or EFLIVKS is the established amino acid sequence to form a dimer and that EFLIVIKS alone had no cytoprotective action, it is most likely that Ser^7 is essential for HN to self-dimerize and that self-dimerization of HN is essential for the action of HN. […] This level of stability alterations could not account for the drastic potentiation of the rescue action by the fusion with EFLIVIKS.

[7] = tested on: Aβ and four FAD genes (V642I-APP, NL-APP, M146L-PS1, and N141I-PS2); type: cell-based; conditions: Table 5, marked *
Description: as §1, §2, §3

[8] = tested on: F11 cells transfected with V642I-APP, NL-APP, M146L-PS1 or N141I-PS2 cDNA; type: cell-based, rat/mouse hybrid
Description: as §1

[9] = tested on: primary cultured neurons treated with 25 μM Aβ1-43; conditions: as described previously [16]; read-out: IC50 of the HNG action against Aβ1-43-induced neuronal death; cited from earlier work
(His)6-(S7A)HN = target: T3, (His)6-(S7A)HN; assay: Ni-bead pull-down, anti-FLAG immunoblot
T3 construct: Synthetic peptide, immobilised on Ni-NTA agarose; also called His-S7A
T3 peptide: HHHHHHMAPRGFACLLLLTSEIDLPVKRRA
Procedure: as §5, with “(His)₆-tagged” for “(His)6-tagged”
Synthetic (His)₆-HN was mixed with synthetic HN-FLAG, and precipitated by Ni-beads. The precipitate was examined with an anti-FLAG antibody for HN-FLAG. […] Under the same conditions, (S7A)HN-FLAG was not precipitated by (His)₆-(S7A)HN. EF-(S7A)HN-FLAG was precipitated by (His)₆-EF-(S7A)HN as efficiently as HN-FLAG precipitation by (His)₆-HN.

T2 sequence (Q8IVG9 whole entry): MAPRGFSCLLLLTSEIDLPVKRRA

| Molecule | Full protection (Aβ and V642I-APP) | IC50 (Aβ and V642I-APP) | concentration up to which no neuroprotection against Aβ1-43 was exerted ([1]; 25 μM Aβ1-43, primary neurons) | effect of excess competitor on EF-(S7A)HN-FLAG precipitation by (His)6-EF-(S7A)HN (HN (self-dimerization) [2]) | effect of excess competitor on HN-FLAG precipitation by (His)6-HN (HN (self-dimerization) [3]) | self-dimerization / complex formation (in words) (HN (self-dimerization) [5]) | amount of peptide relative to the amount at time zero [6] | further results |
| --- | --- | --- | --- | --- | --- | --- | --- | --- |
| EFLIVIKS [dimerization peptide, reference compound] | NE** (the corresponding peptide had no cytoprotective effect at 10 μM) | > 10000 nM | > 100 µM | blocked | could not interfere |  |  |  |
| EFLIVIKSMAPRGFACLLLLTSEIDLPVKRRA [EF-(S7A)HN] |  |  |  |  |  | self-dimerizes through the EFLIVIKS region | virtually unaltered | IC50 [4]: 1 nM; concentration of full cytoprotection / complete suppression against V642I-APP ([4]; F11 cells): 100 nM; potency of cytoprotection against V642I-APP relative to HN ([4]; times higher than that of HN): about 100 times; Full protection (minimal concentration that exerted full cytoprotection) (Aβ and V642I-APP): ˜100 nM; IC50 [1]: ~10 nM; concentration of full neuroprotection against Aβ1-43 ([1]; 25 μM Aβ1-43): 100 nM; suppression of Aβ neurotoxicity in the presence of 100 μM EFLIVIKS ([1]; 25 μM Aβ1-43, EF-HN and EF-HNG at 10 μM, WST-8 and Calcein assays): could not suppress Aβ neurotoxicity at all |
| MAPRGFACLLLLTSEIDLPVKRRA [S7A HN] |  |  | > 10 µM | not |  | little activity for self-dimerization | about ⅔ | concentration up to which no cytoprotection against V642I-APP was exerted ([4]; F11 cells): > 10 µM; Full protection [7]: NE* (the corresponding peptide had no cytoprotective effect at 10 μM); IC50 ([7]; read-out: IC50): > 10000 nM; cytoprotective action against FAD genes (in words) ([8]; V642I-APP): no effect |
| MAPRGFSCLLLLTGEIDLPVKRRA [HNG, reference compound] |  |  |  |  | abolished |  | about ⅔ | Full protection (minimal concentration that exerted full cytoprotection) [7]: ˜10 nM; IC50 [9]: ~0.5 nM; IC50 ([8]; each of V642I-APP, read-out: IC50 of suppression of neuronal cell death by FAD genes): ~0.03 nM |
| YMAPRGFSCLLLLTGEIDLPVKKKK [HNG-KKK, HNG with its C-terminal KRRA substituted to KKKK] | NE** (the corresponding peptide had no cytoprotective effect at 10 μM) | > 10000 nM | > 10 µM |  | no effect | little activity to form a complex with HN |  | neuroprotective action against Aβ1-43 (in words) ([1]; 25 μM Aβ1-43, primary neurons): lost the neuroprotective action |
| MAPRGFACLLLLTSEIDLPVKRRADYKDDDDK (Synthetic C-terminally FLAG-tagged peptide; also called (S7A)HN-FLAG) [(S7A)HN-DYKDDDDK (S7A-FLAG)] |  |  |  |  |  |  |  | binding result ((His)6-(S7A)HN): no binding (tested: 1 nmol of each peptide in 0.5 ml) |
